The text below walks through data of patent US8889696B2, “Substituted pyrido[2,3-d]pyrimidin-7(8H)-ones and therapeutic uses thereof” (Temple University—Of The Commonwealth System Of Higher …, priority 2009, dated 2014).

Series [1] has as its system K562 (chronic myelogenous leukemia). Kind of series: Effect on tumor cell lines (Latham assay), K562. Format: cell-based. The settings on record: Homo sapiens; K562 cells, examined 96 hours after treatment; read-out: Potencies (IC50) K 562. The procedure:
(§1) The plated cells were treated 24 hours later with a compound of the invention dissolved in DMSO at multiple concentrations ranging from 0.01 μM to 100 μM. […] When necessary, the total number of viable cells was determined by trypsinizing the wells and counting the number of viable cells, as determined by trypan blue exclusion, using a hemacytometer.

Series [2] has as its system DU145 (prostate cancer). Put plainly: Effect on tumor cell lines (Latham assay), DU145. The series is classed as cell-based. The settings on record: Homo sapiens, DU-145; DU145 cells, examined 96 hours after treatment; read-out: Potencies (IC50) DU 145. How it is done: as §1

As usually defined, the IC50 is the concentration that inhibits the measured activity by half. As a reminder, the melting point is the temperature, or range, at which the solid turns liquid. As to `O=c1c(S(=O)(=O)c2ccccc2)cc2cnc(N3CCN(c4ccc(C(F)(F)F)cn4)CC3)nc2n1C1CCCC1` [Example 57, 8-cyclopentyl-2-(4-(5-(trifluoromethyl)pyridin-2-yl)piperazin-1-yl)-6-(phenylsulfonyl)pyrido[2,3-d]pyrimidin-7(8H)-one], the melting point is 258 to 259 °C. Further, in series [1], the IC50 was 50 to 100 µM. Besides, the IC50 in series [2] was 25 to 50 µM.

`CC(C)(C)OC(=O)N1CCN(c2ccc(Nc3ncc4cc(S(=O)(=O)c5ccccc5)c(=O)n(C5CCCC5)c4n3)nc2)CC1` [Example 65, 2-(5-(4-tert-butoxycarbonylpiperazin-1-yl)pyridin-2-ylamino)-8-cyclopentyl-6-(phenylsulfonyl)pyrido[2,3-d]pyrimidin-7(8H)-one]: the melting point lay within 115 to 116 °C. The IC50 in series [1] lay in the range of 10 to 25 µM. In addition, the half-inhibitory concentration (IC50) in series [2] is above 100 µM.

Turning to `O=c1c(S(=O)(=O)c2ccccc2)cc2cnc(Nc3ccc4[nH]ccc4c3)nc2n1C1CCCC1` [Example 55, 2-(1H-indol-5-ylamino)-8-cyclopentyl-6-(phenylsulfonyl)pyrido[2,3-d]pyrimidin-7(8H)-one], the melting point fell in the range of 272 to 273 °C. Further, in series [1], the IC50 was 1 to 10 µM. Further, the concentration for half-maximal inhibition (IC50) in series [2] was in the range of 1 to 10 µM.

`Cn1c(=O)c(S(=O)(=O)c2ccccc2)cc2cnc(Nc3cnc4[nH]ccc4c3)nc21` [Example 22, 2-(1H-pyrrolo[2,3-b]pyridin-5-ylamino)-8-methyl-6-(phenylsulfonyl)pyrido[2,3-d]pyrimidin-7(8H)-one]: the melting point was in the range of 280 to 284 °C. For the same compound, the half-maximal inhibitory concentration (IC50) in series [1] was below 1 µM. For the same compound, the IC50 in series [2] was below 1 µM.

For the compound `CN1CCN(c2ccc(Nc3ncc4cc(S(=O)(=O)c5ccc(Cl)cc5)c(=O)n(C5CCCCC5)c4n3)cc2)CC1` [Example 50, 2-(4-(4-methylpiperazin-1-yl)phenylamino)-6-(4-chlorophenylsulfonyl)-8-cyclohexylpyrido[2,3-d]pyrimidin-7(8H)-one], the melting point fell in the range of 259 to 260 °C. For the same compound, the IC50 in series [1] is 1 to 10 µM. The IC50 in series [2] lay within 1 to 10 µM.

For `COc1ccc(S(=O)(=O)c2cc3cnc(Nc4ccc5[nH]ccc5c4)nc3n(C)c2=O)cc1` [Example 29, 2-(1H-indol-5-ylamino)-6-(4-methoxyphenylsulfonyl)-8-methylpyrido[2,3-d]pyrimidin-7(8H)-one], the melting point was in the range of 260 to 262 °C. Further, the 50% inhibitory concentration (IC50) in series [1] was below 1 µM. Also, the IC50 in series [2] is below 1 µM.

`CN1CCN(CCNc2ncc3cc(S(=O)(=O)c4ccc(Cl)cc4)c(=O)n(C)c3n2)CC1` [Example 9, 2-(2-(4-methylpiperazin-1-yl)ethylamino)-6-(4-chlorophenylsulfonyl)-8-methylpyrido[2,3-d]pyrimidin-7(8H)-one] showed a melting point of 176 to 180 °C. In addition, the IC50 in series [1] lay within 10 to 25 µM. The 50% inhibitory concentration (IC50) in series [2] fell in the range of 25 to 50 µM.

As for `Cn1c(=O)c(S(=O)(=O)c2ccc(F)cc2)cc2cnc(Nc3ccc4[nH]ncc4c3)nc21` [Example 13, 2-(1H-indazol-5-ylamino)-6-(4-fluorophenylsulfonyl)-8-methylpyrido[2,3-d]pyrimidin-7(8H)-one], the melting point was in the range of 160 to 165 °C. Besides, the IC50 in series [1] fell in the range of 1 to 10 µM. In addition, the 50% inhibitory concentration (IC50) in series [2] was in the range of 1 to 10 µM.

In turn, `Cn1c(=O)c(S(=O)(=O)c2ccc(Br)cc2)cc2cnc(Nc3ccc4[nH]ccc4c3)nc21` [Example 18, 2-(1H-indol-5-ylamino)-6-(4-bromophenylsulfonyl)-8-methylpyrido[2,3-d]pyrimidin-7(8H)-one] had a melting point of 316 to 320 °C. For the same compound, the half-inhibitory concentration (IC50) in series [1] lay in the range of 1 to 10 µM. The concentration for half-maximal inhibition (IC50) in series [2] is 1 to 10 µM.

Compound `CCCn1c(=O)c(S(=O)(=O)c2ccccc2)cc2cnc(Nc3cccc4[nH]ccc34)nc21` [Example 45, 2-(1H-indol-4-ylamino)-6-(phenylsulfonyl)-8-propylpyrido[2,3-d]pyrimidin-7(8H)-one] showed a melting point of 260 to 261 °C. The IC50 in series [1] is 1 to 10 µM. Moreover, the half-inhibitory concentration (IC50) in series [2] lay in the range of 10 to 25 µM.

For the compound `Cn1c(=O)c(S(=O)(=O)c2ccccc2)cc2cnc(Nc3ccc4cc[nH]c4c3)nc21` [Example 25, 2-(1H-indol-6-ylamino)-8-methyl-6-(phenylsulfonyl)pyrido[2,3-d]pyrimidin-7(8H)-one], the melting point is above 350 °C. For the same compound, the IC50 in series [1] was in the range of 25 to 50 µM. For the same compound, the half-maximal inhibitory concentration (IC50) in series [2] lay within 25 to 50 µM.

In the case of `Cc1ccc(S(=O)(=O)c2cc3cnc(Nc4cnc5[nH]ccc5c4)nc3n(C)c2=O)cc1` [Example 19, 2-(1H-pyrrolo[2,3-b]pyridin-5-ylamino)-8-methyl-6-tosylpyrido[2,3-d]pyrimidin-7(8H)-one], the melting point was 252 to 255 °C. In addition, the IC50 in series [1] lay in the range of 1 to 10 µM. For the same compound, in series [2], the IC50 fell in the range of 1 to 10 µM.

Take `Cn1c(=O)c(S(=O)(=O)c2ccccc2)cc2cnc(Nc3ccc4[nH]ccc4c3)nc21` [Example 21, 2-(1H-indol-5-ylamino)-8-methyl-6-(phenylsulfonyl)pyrido[2,3-d]pyrimidin-7(8H)-one]: the melting point lay within 340 to 344 °C. For the same compound, in series [1], the IC50 is below 1 µM. The IC50 in series [2] lay within 1 to 10 µM.

As for `Cc1ccc(S(=O)(=O)c2cc3cnc(Nc4cccc5cccnc45)nc3n(C)c2=O)cc1` [Example 14, 8-methyl-2-(quinolin-8-ylamino)-6-tosylpyrido[2,3-d]pyrimidin-7(8H)-one], the melting point was above 350 °C. The half-maximal inhibitory concentration (IC50) in series [1] lay within 10 to 25 µM. In series [2], the IC50 was 10 to 25 µM.

`CCn1c(=O)c(S(=O)(=O)c2ccccc2)cc2cnc(Nc3ccc4[nH]ccc4c3)nc21` [Example 54, 2-(1H-indol-5-ylamino)-8-ethyl-6-(phenylsulfonyl)pyrido[2,3-d]pyrimidin-7(8H)-one] had a melting point above 400 °C. For the same compound, the IC50 in series [1] was below 1 µM. For the same compound, the IC50 in series [2] fell in the range of 1 to 10 µM.

As to `Cn1c(=O)c(S(=O)(=O)c2ccc(Cl)cc2)cc2cnc(Nc3cnc4[nH]ccc4c3)nc21` [Example 32, 2-(1H-pyrrolo[2,3-b]pyridin-5-ylamino)-6-(4-chlorophenylsulfonyl)-8-methylpyrido[2,3-d]pyrimidin-7(8H)-one], the melting point lay in the range of 296 to 298 °C. Further, the IC50 in series [1] lay in the range of 1 to 10 µM. Also, the 50% inhibitory concentration (IC50) in series [2] was in the range of 1 to 10 µM.

On to `COc1ccc(Nc2ncc3cc(S(=O)(=O)c4ccc(C)cc4)c(=O)n(C)c3n2)cc1` [Example 20, 2-(4-methoxyphenylamino)-8-methyl-6-tosylpyrido[2,3-d]pyrimidin-7(8H)-one], for which the melting point is 336 to 340 °C. In series [1], the IC50 lay within 50 to 100 µM. Besides, in series [2], the IC50 is above 100 µM.

In turn, `CCCn1c(=O)c(S(=O)(=O)c2ccccc2)cc2cnc(Nc3ccc4cc[nH]c4c3)nc21` [Example 44, 2-(1H-indol-6-ylamino)-6-(phenylsulfonyl)-8-propylpyrido[2,3-d]pyrimidin-7(8H)-one] showed a melting point of 272 to 273 °C. Also, in series [1], the IC50 lay within 1 to 10 µM. The IC50 in series [2] was 1 to 10 µM.

Compound `Cn1c(=O)c(S(=O)(=O)c2ccccc2)cc2cnc(Nc3ccc4ncccc4c3)nc21` [Example 23, 8-methyl-6-(phenylsulfonyl)-2-(quinolin-6-ylamino)pyrido[2,3-d]pyrimidin-7(8H)-one] showed a melting point of 348 to 350 °C. Besides, the IC50 in series [1] is above 100 µM. For the same compound, the IC50 in series [2] fell in the range of 50 to 100 µM.

`COc1ccc(Nc2ncc3cc(S(=O)(=O)c4ccc(Cl)cc4)c(=O)n(C)c3n2)cc1` [Example 4, 6-(4-chlorophenylsulfonyl)-2-(4-methoxyphenylamino)-8-methylpyrido[2,3-d]pyrimidin-7(8H)-one] displayed a melting point of 286 to 290 °C. Besides, the IC50 in series [1] lay in the range of 10 to 25 µM. For the same compound, the IC50 in series [2] fell in the range of 25 to 50 µM.

With `COC(=O)c1ccc(S(=O)(=O)c2cc3cnc(Nc4ccc5[nH]ccc5c4)nc3n(C)c2=O)cc1` [Example 26, methyl 4-(2-(1H-indol-5-ylamino)-7,8-dihydro-8-methyl-7-oxopyrido[2,3-d]pyrimidin-6-ylsulfonyl)benzoate], the melting point is 305 to 310 °C. In series [1], the IC50 was 1 to 10 µM. Moreover, the IC50 in series [2] is 1 to 10 µM.

On to `Cn1c(=O)c(S(=O)(=O)c2ccc(Cl)cc2)cc2cnc(NCCCN3CCOCC3)nc21` [Example 7, 2-(3-morpholinopropylamino)-6-(4-chlorophenylsulfonyl)-8-methylpyrido[2,3-d]pyrimidin-7(8H)-one], for which the melting point was 160 to 164 °C. The IC50 in series [1] is 25 to 50 µM. Also, in series [2], the IC50 was 25 to 50 µM.

`Cc1ccc(S(=O)(=O)c2cc3cnc(Nc4ccc5ncccc5c4)nc3n(C)c2=O)cc1` [Example 15, 8-methyl-2-(quinolin-6-ylamino)-6-tosylpyrido[2,3-]pyrimidin-7(8H)-one] yielded a melting point of 325 to 330 °C. Moreover, the 50% inhibitory concentration (IC50) in series [1] lay within 10 to 25 µM. In addition, the half-maximal inhibitory concentration (IC50) in series [2] lay in the range of 10 to 25 µM.

`Cn1c(=O)c(S(=O)(=O)c2ccc(F)cc2)cc2cnc(Nc3ccc4cc[nH]c4c3)nc21` [Example 24, 2-(1H-indol-6-ylamino)-6-(4-fluorophenylsulfonyl)-8-methylpyrido[2,3-d]pyrimidin-7(8H)-one] showed a melting point above 350 °C. For the same compound, the IC50 in series [1] fell in the range of 25 to 50 µM. For the same compound, the IC50 in series [2] fell in the range of 25 to 50 µM.

With `CSc1ncc2cc(S(=O)(=O)c3ccccc3)c(=O)[nH]c2n1` [Example 68, 2-(methylsulfanyl)-6-(phenylsulfonyl)pyrido[2,3-d]pyrimidin-7(8H)-one], the melting point was 280 °C (dec.). The concentration for half-maximal inhibition (IC50) in series [1] is above 100 µM. The IC50 in series [2] was above 100 µM.

`Cn1c(=O)c(S(=O)(=O)c2ccc(F)cc2)cc2cnc(Nc3ccc4[nH]ccc4c3)nc21` [Example 11] displayed a melting point of 278 to 282 °C. Also, the half-inhibitory concentration (IC50) in series [1] is below 1 µM. Besides, the half-maximal inhibitory concentration (IC50) in series [2] is below 1 µM.
